Reference: US20260293949A1, “CARBONATION SENSATION IMPARTING OR ENHANCING AGENT” (TAKASAGO INTERNATIONAL CORPORATION, priority 2022, published 2026)

What was measured:
Type in all cases: in vivo
[1] = Sensory evaluation of carbonation sensation imparting in cola-flavored compressed tablet candy; settings: for Carbonation sensation imparting evaluation result: compressed tablet candy, average score of six panelists, 1 to 5
Procedure: (§1) In the following Examples, the action and effect were verified using a value obtained by calculating an average score of scores for imparting or enhancing fizziness by sensory evaluation conducted by specialized panelists. The expression “1 point” in the evaluation is the evaluation in the case where no component is added at all (no addition).
(§2) Diethyl sebacate was separately added to a cola-flavored compressed tablet candy prepared according to the formulation shown in Table 14 using a pestle with a diameter of 7 mm, so as to reach a concentration shown in Table 15 below, and sensory evaluation was performed by six panelists to determine the extent to which fizziness was imparted as compared with a control in which diethyl sebacate was not added.

[2] = Sensory evaluation of fizziness enhancement in beer-flavored beverage; settings: for Fizziness enhancement evaluation result: beer-flavored beverage, average score of seven panelists, 1 to 5
Procedure: as §1
Diethyl sebacate was separately added to “Asahi Dry Zero (registered trademark) (manufactured by Asahi Breweries, Ltd.)” so as to reach the concentrations shown in Table 8 below, and sensory evaluation was performed by seven specialized panelists to determine the extent to which fizziness was enhanced as compared with a control in which diethyl sebacate was not added.

[3] = Sensory evaluation of fizziness enhancement in cider-flavored carbonated beverage; settings: for Fizziness enhancement evaluation result: average score of seven panelists, 1 to 5
Procedure: as §1
Diethyl sebacate was separately added to “Mitsuya Cider (registered trademark) Zero Strong (manufactured by Asahi Soft Drinks Co., Ltd.)” so as to reach the concentrations shown in Table 6 below, and sensory evaluation was performed by seven specialized panelists to determine the extent to which fizziness was enhanced as compared with a control in which diethyl sebacate was not added.

[4] = Sensory evaluation of fizziness enhancement in carbonated water (WILKINSON TANSAN), specialized panelists; settings: for Fizziness enhancement evaluation result: average score of seven panelists, 1 to 5
Procedure: as §1
Diethyl sebacate (manufactured by Inoue Perfumery Mfg. Co., Ltd., the same applies to the following Examples) was separately added to “WILKINSON (registered trademark) TANSAN (manufactured by Asahi Soft Drinks Co., Ltd.)” so as to reach the concentrations shown in Table 2 below, and sensory evaluation was performed by seven specialized panelists to determine the extent to which fizziness was enhanced as compared with a control in which diethyl sebacate was not added.
Diisobutyl adipate (manufactured by Inoue Perfumery Mfg. Co., Ltd., the same applies to the following Examples) was separately added to “WILKINSON (registered trademark) TANSAN (manufactured by Asahi Soft Drinks Co., Ltd.)” so as to reach the concentrations shown in Table 3 below, and sensory evaluation was performed by seven specialized panelists to determine the extent to which fizziness was enhanced as compared with a control in which diisobutyl adipate was not added.
Dimethyl sebacate (manufactured by Tokyo Chemical Industry Co., Ltd.) was separately added to “WILKINSON (registered trademark) TANSAN (manufactured by Asahi Soft Drinks Co., Ltd.)” so as to reach the concentrations shown in Table 4 below, and sensory evaluation was performed by seven specialized panelists to determine the extent to which fizziness was enhanced as compared with a control in which dimethyl sebacate was not added.
Dipropyl adipate (manufactured by Tokyo Chemical Industry Co., Ltd.) was separately added to “WILKINSON (registered trademark) TANSAN (manufactured by Asahi Soft Drinks Co., Ltd.)” so as to reach the concentrations shown in Table 5 below, and sensory evaluation was performed by seven specialized panelists to determine the extent to which fizziness was enhanced as compared with a control in which dipropyl adipate was not added.

[5] = Sensory evaluation of fizziness enhancement in carbonated grapefruit flavored Chu-Hi; settings: for Fizziness enhancement evaluation result: carbonated Chu-Hi, average score of seven panelists, 1 to 5
[6] = Sensory evaluation of carbonation sensation imparting in black tea beverage with fruit juice; settings: for Carbonation sensation imparting evaluation result: average score of seven panelists
Procedure: as §1
Diethyl sebacate was separately added to “Afternoon Tea Apple Tea Plus (registered trademark) (manufactured by Kirin Beverage Co., Ltd.)” so as to reach the concentrations shown in Table 9 below, and sensory evaluation was performed by seven specialized panelists to determine the extent to which fizziness was imparted as compared with a control in which diethyl sebacate was not added.

[7] = Sensory evaluation of carbonation sensation imparting in grape-flavored mouthwash; settings: for Carbonation sensation imparting evaluation result: grape-flavored mouthwash, average score of five panelists, 1 to 5
Procedure: as §1
as §2, with “grape-flavored mouthwash” for “a cola-flavored compressed tablet candy”, “18” for “14 using a pestle with a diameter of 7 mm,”, “19” for “15”, “five” for “six”

[8] = carbonated beer-flavored beverage
[9] = carbonated grapefruit flavored Chu-Hi

CCOC(=O)CCCCCCCCC(=O)OCC [Diethyl sebacate, diethyl sebacate]
Carbonation sensation imparting evaluation result ([1]; 0.1 ppm): 1.5 points | Carbonation sensation imparting evaluation result ([1]; 1 ppm): 2.2 points | Carbonation sensation imparting evaluation result ([1]; 10 ppm): 2.5 points | Carbonation sensation imparting evaluation result ([1]; 100 ppm): 4.0 points | Carbonation sensation imparting evaluation result ([1]; 1000 ppm): 3.0 points | Carbonation sensation imparting evaluation result ([1]; 10000 ppm): 1.5 points | Carbonation sensation imparting evaluation result ([1]; 20000 ppm): 1.2 points | amelioration of mouthfeel (in words) ([1]; compressed tablet candies): effect of ameliorating the mouthfeel was also confirmed | fizziness imparting (in words) ([1]; compressed tablet candies): fizziness can be imparted to compressed tablet candies | Fizziness enhancement evaluation result ([2]; 0.1 ppm): 1.1 points | Fizziness enhancement evaluation result ([2]; 0.3 ppm): 1.6 points | Fizziness enhancement evaluation result ([2]; 1 ppm): 2.7 points | Fizziness enhancement evaluation result ([2]; 5 ppm): 2.9 points | Fizziness enhancement evaluation result ([2]; 10 ppm): 2.7 points | Fizziness enhancement evaluation result ([2]; 20 ppm): 2.7 points | Fizziness enhancement evaluation result ([2]; 50 ppm): 1.9 points | Fizziness enhancement evaluation result ([2]; 100 ppm): 1.1 points | amelioration of mouthfeel (in words) [2, 8]: effect of ameliorating the mouthfeel was also confirmed | fizziness enhancement (in words) [2, 8]: fizziness of the carbonated beer-flavored beverage can be enhanced | amelioration of mouthfeel (in words) [3]: effect of ameliorating the mouthfeel was also confirmed | fizziness enhancement (in words) [3]: fizziness of the cider-flavored carbonated beverage can be enhanced | Fizziness enhancement evaluation result ([3]; 0.1 ppm): 1.3 points | Fizziness enhancement evaluation result ([3]; 0.3 ppm): 1.9 points | Fizziness enhancement evaluation result ([3]; 1 ppm): 3.7 points | Fizziness enhancement evaluation result ([3]; 5 ppm): 3.9 points | Fizziness enhancement evaluation result ([3]; 10 ppm): 3.7 points | Fizziness enhancement evaluation result ([3]; 20 ppm): 3.6 points | Fizziness enhancement evaluation result ([3]; 50 ppm): 3.3 points | Fizziness enhancement evaluation result ([3]; 100 ppm): 1.1 points | amelioration of mouthfeel (in words) [4]: effect of ameliorating the mouthfeel was also confirmed | fizziness enhancement (in words) [4]: fizziness of carbonated water can be enhanced | Fizziness enhancement evaluation result ([4]; 0.1 ppm): 1.1 points | Fizziness enhancement evaluation result ([4]; 0.3 ppm): 2.1 points | Fizziness enhancement evaluation result ([4]; 1 ppm): 3.7 points | Fizziness enhancement evaluation result ([4]; 5 ppm): 4.6 points | Fizziness enhancement evaluation result ([4]; 10 ppm): 4.5 points | Fizziness enhancement evaluation result ([4]; 20 ppm): 2.5 points | Fizziness enhancement evaluation result ([4]; 50 ppm): 2.1 points | Fizziness enhancement evaluation result ([4]; 100 ppm): 1.7 points | Fizziness enhancement evaluation result ([5]; 0.1 ppm): 1.1 points | Fizziness enhancement evaluation result ([5]; 0.3 ppm): 1.7 points | Fizziness enhancement evaluation result ([5]; 1 ppm): 4.0 points | Fizziness enhancement evaluation result ([5]; 5 ppm): 4.0 points | Fizziness enhancement evaluation result ([5]; 10 ppm): 3.9 points | Fizziness enhancement evaluation result ([5]; 20 ppm): 3.4 points | Fizziness enhancement evaluation result ([5]; 50 ppm): 2.6 points | Fizziness enhancement evaluation result ([5]; 100 ppm): 1.3 points | amelioration of mouthfeel (in words) [5, 9]: effect of ameliorating the mouthfeel was also confirmed | fizziness enhancement (in words) [5, 9]: fizziness of the carbonated grapefruit flavored Chu-Hi can be enhanced | amelioration of mouthfeel (in words) [6]: effect of ameliorating the mouthfeel was also confirmed | Carbonation sensation imparting evaluation result ([6]; 0.1 ppm, 1 (almost no fizziness) to 5 (extremely imparted)): 1.1 points | Carbonation sensation imparting evaluation result ([6]; 0.3 ppm, 1 to 5): 1.3 points | Carbonation sensation imparting evaluation result ([6]; 1 ppm, 1 to 5): 1.9 points | Carbonation sensation imparting evaluation result ([6]; 5 ppm, 1 to 5): 2.7 points | Carbonation sensation imparting evaluation result ([6]; 10 ppm, 1 to 5): 2.9 points | Carbonation sensation imparting evaluation result ([6]; 20 ppm, 1 to 5): 1.7 points | Carbonation sensation imparting evaluation result ([6]; 50 ppm, 1 to 5): 1.7 points | Carbonation sensation imparting evaluation result ([6]; 100 ppm, 1 to 5): 1.1 points | fizziness imparting (in words) ([6]; contains no carbon dioxide): fizziness can be imparted to a black tea beverage with fruit juice | Carbonation sensation imparting evaluation result ([7]; 0.1 ppm): 1.8 points | Carbonation sensation imparting evaluation result ([7]; 1 ppm): 2.2 points | Carbonation sensation imparting evaluation result ([7]; 5 ppm): 2.8 points | Carbonation sensation imparting evaluation result ([7]; 10 ppm): 3.4 points | Carbonation sensation imparting evaluation result ([7]; 50 ppm): 4.0 points | Carbonation sensation imparting evaluation result ([7]; 100 ppm): 3.8 points | Carbonation sensation imparting evaluation result ([7]; 500 ppm): 3.0 points | amelioration of mouthfeel (in words) ([7]; mouthwash): effect of ameliorating the mouthfeel was also confirmed | fizziness imparting (in words) ([7]; mouthwash): fizziness can be imparted to the mouthwash
